According to US20260132164A1, “PNU ANTHRACYCLINE DERIVATIVES AND METHODS OF USE THEREOF” (Merck Sharp & Dohme LLC, priority 2022, published 2026):

Test system: BxPC3
Experiment: CellTiter-Glo 2.0 Cytotoxicity Assay
Assay type: cell-based
Details: compound added day 1, read on day 4 or 5, 3000 cells/well
[1] = Homo sapiens, BXPC-3, CellTiter-Glo 2.0 luminescence

`COc1cccc2c1C(=O)c1c(O)c3c(c(O)c1C2=O)C[C@@](O)(C(=O)NC1CNCC1(F)F)C[C@@H]3O[C@H]1C[C@H]2[C@H](O[C@@H]3[C@@H](OC)OCCN32)[C@H](C)O1` (stereo partly drawn) [Compound 16] showed an EC50 (CellTiter-Glo 2.0 luminescence) of 24 nM.

`COc1cccc2c1C(=O)c1c(O)c3c(c(O)c1C2=O)C[C@@](O)(C(=O)N1CC(N)C1)C[C@@H]3O[C@H]1C[C@H]2[C@H](O[C@@H]3[C@@H](OC)OCCN32)[C@H](C)O1` [Compound 24] showed an EC50 [1] of 8.3 nM.

`COc1cccc2c1C(=O)c1c(O)c3c(c(O)c1C2=O)C[C@@](O)(C(=O)NC1CCC1N)C[C@@H]3O[C@H]1C[C@H]2[C@H](O[C@@H]3[C@@H](OC)OCCN32)[C@H](C)O1` (stereo partly drawn) [Compound 20] showed an EC50 (CellTiter-Glo 2.0 luminescence) of 8.5 nM.

In the case of `COc1cccc2c1C(=O)c1c(O)c3c(c(O)c1C2=O)C[C@@](O)(C(=O)NCCN1C(=O)CNC1=O)C[C@@H]3O[C@H]1C[C@H]2[C@H](O[C@@H]3[C@@H](OC)OCCN32)[C@H](C)O1` [Compound 62], the EC50 [1] is reported as 0.19 nM.

`COc1cccc2c1C(=O)c1c(O)c3c(c(O)c1C2=O)C[C@@](O)(C(=O)NCCCN(C)CCCN)C[C@@H]3O[C@H]1C[C@H]2[C@H](O[C@@H]3[C@@H](OC)OCCN32)[C@H](C)O1` [Compound 14] was tested, and the EC50 [1] was 11 nM.

`COc1cccc2c1C(=O)c1c(O)c3c(c(O)c1C2=O)C[C@@](O)(C(=O)NCc1ccc(N)cc1)C[C@@H]3O[C@H]1C[C@H]2[C@H](O[C@@H]3[C@@H](OC)OCCN32)[C@H](C)O1` [Compound 23] showed an EC50 [1] of 0.06 nM.

For `COc1cccc2c1C(=O)c1c(O)c3c(c(O)c1C2=O)C[C@@](O)(C(=O)NCC1CC(=O)NC1=O)C[C@@H]3O[C@H]1C[C@H]2[C@H](O[C@@H]3[C@@H](OC)OCCN32)[C@H](C)O1` (stereo partly drawn) [Compound 87], the EC50 (CellTiter-Glo 2.0 luminescence) was 0.12 nM.

`COc1cccc2c1C(=O)c1c(O)c3c(c(O)c1C2=O)C[C@@](O)(C(=O)NCCNC(=O)CN)C[C@@H]3O[C@H]1C[C@H]2[C@H](O[C@@H]3[C@@H](OC)OCCN32)[C@H](C)O1` [Compound 4] gave an EC50 [1] of 13 nM.

`COc1cccc2c1C(=O)c1c(O)c3c(c(O)c1C2=O)C[C@@](O)(C(=O)N1CC2(CNC2)C1)C[C@@H]3O[C@H]1C[C@H]2[C@H](O[C@@H]3[C@@H](OC)OCCN32)[C@H](C)O1` [Compound 30] gave an EC50 [1] of 14 nM.

`COc1cccc2c1C(=O)c1c(O)c3c(c(O)c1C2=O)C[C@@](O)(C(=O)N[C@@H]1CC[C@H](N)C1)C[C@@H]3O[C@H]1C[C@H]2[C@H](O[C@@H]3[C@@H](OC)OCCN32)[C@H](C)O1` [Compound 33] gave an EC50 [1] of 9.2 nM.

`COc1cccc2c1C(=O)c1c(O)c3c(c(O)c1C2=O)C[C@@](O)(C(=O)NCc1nc(N)cn1C)C[C@@H]3O[C@H]1C[C@H]2[C@H](O[C@@H]3[C@@H](OC)OCCN32)[C@H](C)O1` [Compound 82] was tested, and the EC50 [1] was 0.26 nM.

`COc1cccc2c1C(=O)c1c(O)c3c(c(O)c1C2=O)C[C@@](O)(C(=O)NCC(C)(C)CN)C[C@@H]3O[C@H]1C[C@H]2[C@H](O[C@@H]3[C@@H](OC)OCCN32)[C@H](C)O1` [Compound 56] showed an EC50 [1] of 1.4 nM.

`COc1cccc2c1C(=O)c1c(O)c3c(c(O)c1C2=O)C[C@@](O)(C(=O)N[C@H]1CC[C@H](N)CC1)C[C@@H]3O[C@H]1C[C@H]2[C@H](O[C@@H]3[C@@H](OC)OCCN32)[C@H](C)O1` [Compound 59] gave an EC50 [1] of 6.3 nM.

In the case of `COc1cccc2c1C(=O)c1c(O)c3c(c(O)c1C2=O)C[C@@](O)(C(=O)NCC1CNC1)C[C@@H]3O[C@H]1C[C@H]2[C@H](O[C@@H]3[C@@H](OC)OCCN32)[C@H](C)O1` [Compound 47], the EC50 [1] is reported as 9.4 nM.

`COc1cccc2c1C(=O)c1c(O)c3c(c(O)c1C2=O)C[C@@](O)(C(=O)Nc1ccc(CN)cc1)C[C@@H]3O[C@H]1C[C@H]2[C@H](O[C@@H]3[C@@H](OC)OCCN32)[C@H](C)O1` [Compound 83] gave an EC50 [1] of 11 nM.

In the case of `COc1cccc2c1C(=O)c1c(O)c3c(c(O)c1C2=O)C[C@@](O)(C(=O)NC[C@H]1C[C@@H](N)C1)C[C@@H]3O[C@H]1C[C@H]2[C@H](O[C@@H]3[C@@H](OC)OCCN32)[C@H](C)O1` [Compound 31], the EC50 [1] is reported as 2.6 nM.

`COc1cccc2c1C(=O)c1c(O)c3c(c(O)c1C2=O)C[C@@](O)(C(=O)NCC1(N)CC1)C[C@@H]3O[C@H]1C[C@H]2[C@H](O[C@@H]3[C@@H](OC)OCCN32)[C@H](C)O1` [Compound 64] showed an EC50 [1] of 0.49 nM.

`CNCCNC(=O)[C@]1(O)Cc2c(O)c3c(c(O)c2[C@@H](O[C@H]2C[C@H]4[C@H](O[C@@H]5[C@@H](OC)OCCN54)[C@H](C)O2)C1)C(=O)c1c(OC)cccc1C3=O` [Compound 9] was tested, and the EC50 [1] was 17 nM.

`COc1cccc2c1C(=O)c1c(O)c3c(c(O)c1C2=O)C[C@@](O)(C(=O)Nc1ccc(N)cc1)C[C@@H]3O[C@H]1C[C@H]2[C@H](O[C@@H]3[C@@H](OC)OCCN32)[C@H](C)O1` [Compound 77] showed an EC50 [1] of 0.11 nM.

`COc1cccc2c1C(=O)c1c(O)c3c(c(O)c1C2=O)C[C@@](O)(C(=O)NC1CCNC1)C[C@@H]3O[C@H]1C[C@H]2[C@H](O[C@@H]3[C@@H](OC)OCCN32)[C@H](C)O1` (stereo partly drawn) [Compound 12] gave an EC50 [1] of 7.7 nM.

For `COc1cccc2c1C(=O)c1c(O)c3c(c(O)c1C2=O)C[C@@](O)(C(=O)NC12CC(CN)(C1)C2)C[C@@H]3O[C@H]1C[C@H]2[C@H](O[C@@H]3[C@@H](OC)OCCN32)[C@H](C)O1` [Compound 44], the EC50 [1] was 4.8 nM.

`COc1cccc2c1C(=O)c1c(O)c3c(c(O)c1C2=O)C[C@@](O)(C(=O)NCC[C@@H]1CCCN1)C[C@@H]3O[C@H]1C[C@H]2[C@H](O[C@@H]3[C@@H](OC)OCCN32)[C@H](C)O1` [Compound 40] was tested, and the EC50 [1] was 4.3 nM.

Work on `COc1cccc2c1C(=O)c1c(O)c3c(c(O)c1C2=O)C[C@@](O)(C(=O)N[C@H]1C[C@@H](CN)C1)C[C@@H]3O[C@H]1C[C@H]2[C@H](O[C@@H]3[C@@H](OC)OCCN32)[C@H](C)O1` [Compound 55] yielded an EC50 [1] of 10.2 nM.

`COc1cccc2c1C(=O)c1c(O)c3c(c(O)c1C2=O)C[C@@](O)(C(=O)NCC1CC(=O)NC1=O)C[C@@H]3O[C@H]1C[C@H]2[C@H](O[C@@H]3[C@@H](OC)OCCN32)[C@H](C)O1` (stereo partly drawn) [Compound 88] gave an EC50 (CellTiter-Glo 2.0 luminescence) of 0.27 nM.

`COc1cccc2c1C(=O)c1c(O)c3c(c(O)c1C2=O)C[C@@](O)(C(=O)N1C[C@H]2CN[C@H]2C1)C[C@@H]3O[C@H]1C[C@H]2[C@H](O[C@@H]3[C@@H](OC)OCCN32)[C@H](C)O1` [Compound 75] gave an EC50 [1] of 2.9 nM.

Compound `COc1cccc2c1C(=O)c1c(O)c3c(c(O)c1C2=O)C[C@@](O)(C(=O)NCc1ccccc1N)C[C@@H]3O[C@H]1C[C@H]2[C@H](O[C@@H]3[C@@H](OC)OCCN32)[C@H](C)O1` [Compound 79] has an EC50 [1] of 0.15 nM.

With `COc1cccc2c1C(=O)c1c(O)c3c(c(O)c1C2=O)C[C@@](O)(C(=O)NCC(N)C(F)(F)F)C[C@@H]3O[C@H]1C[C@H]2[C@H](O[C@@H]3[C@@H](OC)OCCN32)[C@H](C)O1` (stereo partly drawn) [Compound 65] the EC50 [1] was 0.16 nM.

For `COc1cccc2c1C(=O)c1c(O)c3c(c(O)c1C2=O)C[C@@](O)(C(=O)NC12CNCC1C2)C[C@@H]3O[C@H]1C[C@H]2[C@H](O[C@@H]3[C@@H](OC)OCCN32)[C@H](C)O1` (stereo partly drawn) [Compound 57], the EC50 [1] was 1.6 nM.

`COc1cccc2c1C(=O)c1c(O)c3c(c(O)c1C2=O)C[C@@](O)(C(=O)NC12CC(NC(=O)CO)(C1)C2)C[C@@H]3O[C@H]1C[C@H]2[C@H](O[C@@H]3[C@@H](OC)OCCN32)[C@H](C)O1` [Compound 60] showed an EC50 [1] of 0.55 nM.

`COc1cccc2c1C(=O)c1c(O)c3c(c(O)c1C2=O)C[C@@](O)(C(=O)NCCCN1CCNCC1)C[C@@H]3O[C@H]1C[C@H]2[C@H](O[C@@H]3[C@@H](OC)OCCN32)[C@H](C)O1` [Compound 39] gave an EC50 [1] of 3.8 nM.

For `COc1cccc2c1C(=O)c1c(O)c3c(c(O)c1C2=O)C[C@@](O)(C(=O)NC12CC(O)(C1)C2)C[C@@H]3O[C@H]1C[C@H]2[C@H](O[C@@H]3[C@@H](OC)OCCN32)[C@H](C)O1` [Compound 90], the EC50 [1] was 0.23 nM.

Work on `COc1cccc2c1C(=O)c1c(O)c3c(c(O)c1C2=O)C[C@@](O)(C(=O)N1CC(CN)C1)C[C@@H]3O[C@H]1C[C@H]2[C@H](O[C@@H]3[C@@H](OC)OCCN32)[C@H](C)O1` [Compound 2] yielded an EC50 [1] of 22 nM.

For `COc1cccc2c1C(=O)c1c(O)c3c(c(O)c1C2=O)C[C@@](O)(C(=O)NC1CNCC1(F)F)C[C@@H]3O[C@H]1C[C@H]2[C@H](O[C@@H]3[C@@H](OC)OCCN32)[C@H](C)O1` (stereo partly drawn) [Compound 17], the EC50 (CellTiter-Glo 2.0 luminescence) was 10.7 nM.

`COc1cccc2c1C(=O)c1c(O)c3c(c(O)c1C2=O)C[C@@](O)(C(=O)NCC(N)C(F)F)C[C@@H]3O[C@H]1C[C@H]2[C@H](O[C@@H]3[C@@H](OC)OCCN32)[C@H](C)O1` (stereo partly drawn) [Compound 69] showed an EC50 [1] of 0.16 nM.

With `COc1cccc2c1C(=O)c1c(O)c3c(c(O)c1C2=O)C[C@@](O)(C(=O)Nc1cc(N)n(C)n1)C[C@@H]3O[C@H]1C[C@H]2[C@H](O[C@@H]3[C@@H](OC)OCCN32)[C@H](C)O1` [Compound 81] the EC50 [1] was 0.4 nM.

With `COc1cccc2c1C(=O)c1c(O)c3c(c(O)c1C2=O)C[C@@](O)(C(=O)NCCN(C)C(=O)[C@@](C)(N)C(C)C)C[C@@H]3O[C@H]1C[C@H]2[C@H](O[C@@H]3[C@@H](OC)OCCN32)[C@H](C)O1` [Compound 52] the EC50 [1] was 1.9 nM.

With `COc1cccc2c1C(=O)c1c(O)c3c(c(O)c1C2=O)C[C@@](O)(C(=O)NCc1ccc(N)cn1)C[C@@H]3O[C@H]1C[C@H]2[C@H](O[C@@H]3[C@@H](OC)OCCN32)[C@H](C)O1` [Compound 32] the EC50 [1] was 0.07 nM.

`COc1cccc2c1C(=O)c1c(O)c3c(c(O)c1C2=O)C[C@@](O)(C(=O)N[C@@H]1CCCC[C@H]1N)C[C@@H]3O[C@H]1C[C@H]2[C@H](O[C@@H]3[C@@H](OC)OCCN32)[C@H](C)O1` [Compound 26] showed an EC50 [1] of 2.7 nM.

Compound `COc1cccc2c1C(=O)c1c(O)c3c(c(O)c1C2=O)C[C@@](O)(C(=O)NCCNC(=O)[C@@H]1CCCN1)C[C@@H]3O[C@H]1C[C@H]2[C@H](O[C@@H]3[C@@H](OC)OCCN32)[C@H](C)O1` [Compound 3] has an EC50 [1] of 13 nM.

Work on `COc1cccc2c1C(=O)c1c(O)c3c(c(O)c1C2=O)C[C@@](O)(C(=O)NCCNC(=O)NN)C[C@@H]3O[C@H]1C[C@H]2[C@H](O[C@@H]3[C@@H](OC)OCCN32)[C@H](C)O1` [Compound 5] yielded an EC50 [1] of 2.8 nM.

With `COc1cccc2c1C(=O)c1c(O)c3c(c(O)c1C2=O)C[C@@](O)(C(=O)N1CC2(CCNC2)C1)C[C@@H]3O[C@H]1C[C@H]2[C@H](O[C@@H]3[C@@H](OC)OCCN32)[C@H](C)O1` [Compound 28] the EC50 [1] was 478 nM.

Work on `COc1cccc2c1C(=O)c1c(O)c3c(c(O)c1C2=O)C[C@@](O)(C(=O)N1CC(CNC(=O)[C@H](C)N)C1)C[C@@H]3O[C@H]1C[C@H]2[C@H](O[C@@H]3[C@@H](OC)OCCN32)[C@H](C)O1` [Compound 6] yielded an EC50 [1] of 8.6 nM.
